According to US20260097133A1, “EPIGENETIC EDITING TOOL FOR TARGETING HEPATITIS B VIRUS GENE” (priority 2023, published 2026):

Key:
[1] = tested on: HBV genome (type A, GenBank: AF305422.1); assay: Knockdown of HBV markers in transgenic HBV mice; format: in vivo, mice (C57BL/6-HBV); conditions: after single administration
From the text: Transgenic HBV mice (Beijing Vitalstar Biotechnology Co., Ltd., C57BL/6-HBV, subsequent feeding and testing were completed by Beijing Vitalstar) were used in this validation experiment. The genome of this strain of mice was inserted with a 1.28-fold length HBV genome (type A, GenBank: AF305422.1). […] Therefore, this sgRNA was used to prepare the pharmaceutical composition provided in the present application and perform epigenetic editing in transgenic HBV mice to validate the inhibitory effect of this drug on the expression of integrated HBV genes in an in vivo model.
The composition comprising the mRNA encoding EPIREG (sequence: SEQ ID NO: 1191) and sgRNA numbered D99 (BSG35) (mass ratio of mRNA to sgRNA of 1:1) was delivered to transgenic HBV mice (at a dose of 10 mg/kg) by means of tail vein injection of lipid nanoparticles (LNPs) (LNP preparation reference: https://doi.org/10.1038/s41586-021-03534-y). PBS (200 ul) was injected as a negative control, and the antisense oligonucleotide (ASO) drug Bepirovirsen (GSK3228836, dose of 200 mg/kg) was used as a positive control, which could target all HBV RNAs and thus reduce the expression of HBV antigens. After administration, blood was collected regularly in each group to detect the levels of HBV surface antigen (HBsAg) and core antigen (HBcAg/HBeAg) secreted in serum, and the level of HBV DNA was detected by qPCR. […]

[2] = tested on: HBx reporter cell line of type C HBV; assay: sgRNA functional screening in HBx reporter cell line (293 FT, P2A-EGFP), type C HBV; format: cell-based, type C HBV (serotype adr)
From the text: (§1) 293 FT was used to construct a reporter cell line for type B, type C and type D HBV surface antigen (HBsAg), core antigen (HBcAg), X protein (HBx) and polymerase (Pol), and the schematic diagram is shown in FIG. 1A. The genomic sequence containing the CpG island and regulatory elements before the protein transcription start site was retained, and the gene sequences of the self-cleaving peptide P2A and EGFP were fused after the 38th amino acid of the HBV surface antigen (HBsAg), the 129th amino acid of the core antigen (HBcAg), the 77th amino acid of the X protein (HBx), and the 177th amino acid of the polymerase (Pol), respectively. The reporter gene was integrated into the 293 FT genome using the PiggyBac transposon system, and a stably transfected cell line was constructed. The intensity of fluorescence was used to reflect the expression level of the protein, thereby quickly performing functional validation and preliminary screening of sgRNAs near the CpG island. […]

[3] = tested on: type D hepatitis B virus (GenBank: U95551); assay: Candidate sgRNA effect validation in HBV-infected primary hepatocytes (PHH), Example 4; format: cell-based; conditions: 14 days after infection
From the text: A primary hepatocyte (PHH) cell line (WuXi AppTec, M00995-P) infected with type D hepatitis B virus (GenBank: U95551) was used in this validation experiment. Based on the screening results of the three libraries in Example 3 and combined with factors such as conservation, the 20 sgRNAs shown in the table below were selected to prepare the pharmaceutical composition provided in the present application and perform epigenetic editing in the primary hepatocytes to validate the inhibitory effect of the screened candidate sgRNAs on HBV gene expression.
Two days after primary hepatocytes were infected with HBV, lipid nanoparticles (LNPs) (LNP preparation reference: https://doi.org/10.1038/s41586-021-03534-y) were used to deliver the composition comprising the mRNA encoding EPIREG (sequence: SEQ ID NO: 1191) and each of the above-mentioned sgRNAs into primary hepatocytes (administration dose was 2.5 μg/ml, the mass ratio of EPIREG to sgRNA was 1:1). […] The supernatant of the culture medium was collected every two days after administration in each group, and the expression levels of HBV surface antigen (HBsAg), core antigen (HBcAg/HBeAg) and HBV DNA secreted by the cells were detected until 14 days after infection. Cell samples were collected, DNA and RNA in the cells were extracted, and the level of HBV mRNA was detected. […]

[4] = tested on: type D hepatitis B virus (GenBank: U95551); assay: Knockdown of HBV markers in HBV-infected primary hepatocytes (PHH), Example 2; format: cell-based
From the text: A primary hepatocyte (PHH) cell line infected with type D hepatitis B virus (GenBank: U95551) was used in this example. […] Therefore, these four sgRNAs were used to formulate the pharmaceutical composition provided in the present application and perform epigenetic editing in primary hepatocytes to validate their inhibitory effect on HBV gene expression.
Two days after primary hepatocytes were infected with HBV, lipid nanoparticles (LNPs) (LNP preparation reference: https://doi.org/10.1038/s41586-021-03534-y) were used to deliver a composition containing mRNA encoding EPIREG (SEQ ID NO: 1191) and each sgRNA (BSG29, BSG31, BSG34, BSG35) into primary hepatocytes (administration dose was 2.5 μg/ml, the mass ratio of EPIREG to sgRNA was 1:1). The culture supernatant was collected every two days after administration to detect the expression levels of HBV surface antigen (HBsAg) and core antigen (HBcAg) secreted by the cells. Cell samples were collected until 14 days after administration, DNA and RNA were extracted from the cells, and the levels of HBV mRNA and changes in the cccDNA of the HBV gene were detected. The two groups of positive controls used Myrcludex B (WuXi AppTec, C9023GE070-1/PE0723) and RG7834 (WuXi AppTec, ET25747-14-P1), respectively. Myrcludex B could inhibit HBV infection of hepatocytes, and RG7834 could inhibit the synthesis of viral proteins. RG7834 was stopped on the day 13 of the experiment to observe the rebound of viral antigen proteins. (Specific detection methods were performed according to the following kit instructions: HBsAg ELISA kit, Antu-CL 0310; HBeAg ELISA kit, Antu-CL 0312; RNeasy 96 Kit (12), QIAGEN #74182)

[5] = tested on: HBx reporter cell line of type D HBV; assay: sgRNA functional screening in HBx reporter cell line (293 FT, P2A-EGFP), type D HBV; format: cell-based, type D HBV (serotype ayw)
From the text: as §1

[6] = tested on: HBx reporter cell line of type B HBV; assay: sgRNA functional screening in HBx reporter cell line (293 FT, P2A-EGFP), type B HBV; format: cell-based, type B HBV (serotype adw)
From the text: 293 FT was used to construct a reporter cell line for type B, type C and type D HBV surface antigen (HBsAg), core antigen (HBcAg), X protein (HBx) and polymerase (Pol), and the schematic diagram is shown in FIG. 1A. The genomic sequence containing the CpG island and regulatory elements before the protein transcription start site was retained, and the gene sequences of the self-cleaving peptide P2A and EGFP were fused after the 38th amino acid of the HBV surface antigen (HBsAg), the 129th amino acid of the core antigen (HBcAg), the 77th amino acid of the X protein (HBx), and the 177th amino acid of the polymerase (Pol), respectively. The reporter gene was integrated into the 293 FT genome using the PiggyBac transposon system, and a stably transfected cell line was constructed. The intensity of fluorescence was used to reflect the expression level of the protein, thereby quickly performing functional validation and preliminary screening of sgRNAs near the CpG island.
The screening scheme for sgRNA functional validation using the above-mentioned reporter cell line was designed as follows (FIG. 1B): after the reporter cells were plated, the composition EPIREG described in the present application (the domain of the composition was DNMT3A-hDNMT3L-xten80-ZIM3-xten80-dCas9, with an amino acid sequence as set forth in SEQ ID NO: 1194, and a nucleic acid sequence as set forth in SEQ ID NO: 1192 (CDS sequence) and 1193 (plasmid sequence)) containing different sgRNAs was delivered into the cells by transfection, and the two carried red fluorescence and blue fluorescence, respectively. Flow cytometry was used to sort red fluorescent and blue fluorescent double-positive cell populations, which were cultured for a long time. Flow cytometric analysis was performed every week to detect changes in the fluorescence intensity of the reporter cells, which could reflect changes in protein expression levels after epigenetic editing.

[7] = LNP with EPIREG mRNA + sgRNA 1:1, 2.5 μg/ml, 2-10 days after administration

| Substance | persistence of effect on HBV markers [1] | inhibitory effects on HBx expression [2] | inhibition level, comparison among the 20 sgRNAs [3] | inhibitory effect compared with Myrcludex B and RG7834 [4] | inhibitory effect on HBsAg and HBeAg/HBcAg, comparison among sgRNAs ([4]; 2.5 μg/ml) | expression levels of HBsAg and HBeAg/HBcAg in the supernatant (change) ([4]; 2.5 μg/ml, 2-10 days after administration) | reduction of expression level of HBeAg/HBcAg in the supernatant [4, 7] | reduction of expression level of HBsAg in the supernatant [4, 7] | time at which expression levels of HBsAg and HBeAg/HBcAg became stable ([4]; after single administration) | level of viral antigen protein (HBsAg, HBeAg/HBcAg) after end of treatment ([4]; sgRNA: single 4 h treatment, RG7834 stopped on day 13) | inhibitory effects on HBx expression [5] | inhibitory effects on HBx expression ([6]; type B HBV HBx reporter cell line) | editing effects in the HBx reporter cell line ([6]; type B HBV, different time points after transfection of EPIREG + sgRNA) |
| --- | --- | --- | --- | --- | --- | --- | --- | --- | --- | --- | --- | --- | --- |
| Bepirovirsen [ASO] | gradually returned to their original levels |  |  |  |  |  |  |  |  |  |  |  |  |
| AGGAGTTCCGCAGTATGGAT [BSG35] |  | nearly the best inhibitory effects | highest inhibition level | close to that of the two reference inhibitors | best effect | different degrees of decrease | about 80% | about 80% | basically stable on the day 4 after administration | remained stable at a low level | nearly the best inhibitory effects | nearly the best inhibitory effects | extremely high editing effects |
